# Source: patent US20180008629A1, “Compositions and Methods for Treating NLRP3 Inflammasome-Related Diseases and Disorders” (priority 2015, published 2018)
# Assays:
# [1] = Gout induced by intra-articular injection of MSU in rats fed ketogenic diet; format: in vivo, rat; details: ketogenic diet 1 week
# Protocol: Rats were fed a ketogenic diet for 1 week prior to the induction of gout by intra-articular injection of MSU. Blood BHB levels were measured in rats after 1 week ketogenic diet feeding, prior to injection with MSU (FIG. 21A). Knee thickness was measured daily (FIG. 21B). The increase in knee swelling relative to baseline thickness was measured 2 days after gout induction (FIG. 21C). Serum IL-1β was measured by ELISA on day 2 post-MSU injection (FIG. 21D).
# human monocytes = assay: Cytokine secretion from LPS stimulated human monocytes (ELISA); format: cell-based; details: LPS (1 μg/mL) 4 h, increasing concentrations of BHB
# Protocol: The cryopreserved peripheral blood monocuclear cells were used to sort CD14+ monocytes using isolation kit from Miltenyi (130-091-153). A total of 6 healthy subjects, ([…], […], person, person, […] and […]) were used for monocyte isolations. Monocytes were seeded in 6 well plates at concentration of 3 million/mL of RPMI1640 media with 10% FCS and antibiotic/antimycotic mixture and stimulated with LPS for 4 h. The supernatants were used to measure IL-1β, IL-18 and TNF using ELISA. Human peripheral blood was collected by the Health Apheresis Unit and the Clinical Core Laboratory, the National Institute on Aging-Intramural Research Program, under Human Subject Protocol #2003054 and Tissue Procurement Protocol #2003-071.
# NLRP3^L351P = NLRP3^L351P (Mus musculus, UniProt Q8R4B8, L351P); format: cell-based; set-up: endogenous in cells; Nlrp3 L351P Cre+ mice after tamoxifen in vivo (A14); details: constitutively active NLRP3 inflammasome, LPS
# Chain of NLRP3^L351P (Q8R4B8 whole entry L351P): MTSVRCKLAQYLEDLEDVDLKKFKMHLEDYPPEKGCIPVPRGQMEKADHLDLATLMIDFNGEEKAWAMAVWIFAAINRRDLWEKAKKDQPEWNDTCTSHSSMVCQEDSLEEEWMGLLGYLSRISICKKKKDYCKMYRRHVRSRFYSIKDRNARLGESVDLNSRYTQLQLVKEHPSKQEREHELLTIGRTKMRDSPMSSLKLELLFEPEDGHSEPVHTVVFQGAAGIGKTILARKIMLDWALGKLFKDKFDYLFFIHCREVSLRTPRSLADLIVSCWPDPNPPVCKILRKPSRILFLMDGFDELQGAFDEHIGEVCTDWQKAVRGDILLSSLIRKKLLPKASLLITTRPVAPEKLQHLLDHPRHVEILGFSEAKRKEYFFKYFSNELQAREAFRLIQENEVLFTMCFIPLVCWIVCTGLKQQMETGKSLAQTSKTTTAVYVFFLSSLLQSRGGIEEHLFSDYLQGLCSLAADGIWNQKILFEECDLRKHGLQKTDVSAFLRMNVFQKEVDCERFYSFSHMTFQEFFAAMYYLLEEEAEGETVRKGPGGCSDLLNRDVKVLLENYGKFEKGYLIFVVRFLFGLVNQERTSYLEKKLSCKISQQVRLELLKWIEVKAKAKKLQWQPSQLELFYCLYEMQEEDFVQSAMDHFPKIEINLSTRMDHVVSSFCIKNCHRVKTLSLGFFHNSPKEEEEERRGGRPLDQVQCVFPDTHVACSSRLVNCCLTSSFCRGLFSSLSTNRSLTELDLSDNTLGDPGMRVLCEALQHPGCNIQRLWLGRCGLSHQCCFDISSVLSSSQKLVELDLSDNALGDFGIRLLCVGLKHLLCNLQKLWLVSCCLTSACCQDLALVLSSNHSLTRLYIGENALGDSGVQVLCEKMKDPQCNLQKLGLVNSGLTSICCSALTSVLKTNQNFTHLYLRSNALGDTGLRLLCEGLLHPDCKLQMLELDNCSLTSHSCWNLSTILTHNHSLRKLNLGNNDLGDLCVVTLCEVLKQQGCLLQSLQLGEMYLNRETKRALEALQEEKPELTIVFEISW
# NLRC4 = target: T1, NLRC4 (Mus musculus, UniProt Q3UP24); format: cell-based; details: BMDMs infected with Salmonella typhimurium, 0, 1, 5, or 10 mM BHB
# T1 construct: endogenous in cells; host or cells: mouse BMDMs infected with Salmonella typhimurium (SL1344)
# T1 sequence (Q3UP24 whole entry): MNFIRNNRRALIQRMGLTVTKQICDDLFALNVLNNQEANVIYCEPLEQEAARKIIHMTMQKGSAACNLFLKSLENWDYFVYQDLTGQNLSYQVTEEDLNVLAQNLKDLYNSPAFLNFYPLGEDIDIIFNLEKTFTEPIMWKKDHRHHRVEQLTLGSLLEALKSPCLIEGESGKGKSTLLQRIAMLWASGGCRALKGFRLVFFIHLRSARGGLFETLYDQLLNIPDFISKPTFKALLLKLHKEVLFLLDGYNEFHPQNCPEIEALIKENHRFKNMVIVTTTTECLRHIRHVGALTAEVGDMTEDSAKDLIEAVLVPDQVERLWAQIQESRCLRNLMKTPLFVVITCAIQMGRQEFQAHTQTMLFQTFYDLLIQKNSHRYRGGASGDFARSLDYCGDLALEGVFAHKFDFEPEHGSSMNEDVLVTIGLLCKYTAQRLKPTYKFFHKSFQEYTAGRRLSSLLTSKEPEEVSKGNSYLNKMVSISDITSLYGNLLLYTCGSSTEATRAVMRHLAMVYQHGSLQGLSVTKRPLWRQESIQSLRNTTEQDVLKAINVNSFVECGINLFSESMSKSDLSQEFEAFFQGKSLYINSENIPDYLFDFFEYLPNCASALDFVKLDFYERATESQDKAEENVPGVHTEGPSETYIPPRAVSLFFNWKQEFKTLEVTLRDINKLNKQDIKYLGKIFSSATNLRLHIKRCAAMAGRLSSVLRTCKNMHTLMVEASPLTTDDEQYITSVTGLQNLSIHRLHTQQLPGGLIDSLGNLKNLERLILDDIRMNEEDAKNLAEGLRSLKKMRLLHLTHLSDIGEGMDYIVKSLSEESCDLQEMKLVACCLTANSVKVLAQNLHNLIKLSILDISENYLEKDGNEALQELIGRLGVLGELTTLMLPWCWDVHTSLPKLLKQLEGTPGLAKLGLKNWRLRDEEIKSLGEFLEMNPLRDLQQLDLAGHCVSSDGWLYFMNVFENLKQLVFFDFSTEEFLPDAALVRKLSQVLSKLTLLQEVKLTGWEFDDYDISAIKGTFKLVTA
# human neutrophils = assay: IL-1β secretion from human peripheral blood neutrophils (ELISA); format: cell-based; details: peripheral blood neutrophils from adult (30-40 years) and old (65-75 years)
# Protocol: BHB was also observed to inhibit IL1B production from human neutrophils irrespective of age. Peripheral blood neutrophils from adult (30-40 years) and old (65-75 years) were enriched and stimulated as indicated (FIG. 20). IL-1β secretion was measured in culture supernatants by ELISA. Data are expressed as mean±S.E.M (*p<0.01).
# ASC = target: T2, ASC (Mus musculus, UniProt Q9EPB4); assay: ASC oligomerization and ASC speck formation in BMDMs; format: cell-based
# T2 construct: endogenous in cells; host or cells: mouse BMDMs primed with LPS and stimulated with ATP
# T2 sequence (Q9EPB4 1-193): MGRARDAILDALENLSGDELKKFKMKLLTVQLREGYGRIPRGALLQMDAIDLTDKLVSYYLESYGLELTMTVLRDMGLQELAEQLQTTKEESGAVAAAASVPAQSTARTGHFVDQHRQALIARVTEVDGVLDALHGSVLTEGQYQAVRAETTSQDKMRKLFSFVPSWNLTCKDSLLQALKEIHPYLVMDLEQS
# Protocol: The ASC oligomerization was performed using previously described methods (Yu et al., 2006, Cell. Death Differ. 13:236-249). BMDM were plated on chamber slides and allowed to attach overnight. The following day cells were primed with LPS and treated with ATP±BHB (10 mM) as described in the materials and methods. Cells were fixed with 4% paraformaldehyde followed by ASC (Enzo Lifesciences) and DAPI staining. ASC specks were quantified using ImageJ software. At least 5 distinct fields were analyzed and a minimum of 550 cells from each treatment condition were quantified. Data are shown as mean±SD and are representative of two independent experiments. Statistical differences were calculated by student's t-test.
# AIM2 inflammasome = AIM2 inflammasome (Mus musculus, UniProt Q91VJ1); format: cell-based
# Chain of AIM2 inflammasome (Q91VJ1 whole entry, looked up): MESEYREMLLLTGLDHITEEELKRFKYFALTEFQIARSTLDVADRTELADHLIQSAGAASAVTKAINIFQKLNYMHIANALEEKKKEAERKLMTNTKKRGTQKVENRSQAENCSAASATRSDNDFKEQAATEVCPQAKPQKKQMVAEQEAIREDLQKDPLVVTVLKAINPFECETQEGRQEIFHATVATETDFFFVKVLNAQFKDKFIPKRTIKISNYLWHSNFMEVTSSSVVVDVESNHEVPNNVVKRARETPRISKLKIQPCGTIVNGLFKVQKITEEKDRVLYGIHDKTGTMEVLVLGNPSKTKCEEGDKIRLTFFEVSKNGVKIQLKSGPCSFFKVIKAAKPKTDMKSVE
# [2] = tested on: neutrophil hyperactivation; assay: MSU peritonitis model in old mice fed ketogenic diet; format: in vivo, mouse; details: ketogenic diet one week prior to MSU challenge
# Protocol: Old mice were fed a ketogenic diet for one week prior to MSU challenge to induce neutrophil infiltration and inflammasome activation (FIG. 16A). Body weights and blood BHB concentrations were measured daily. Four hours after MSU injection, total peritoneal cells were collected and analyzed by FACS to enumerate total neutrophil infiltration (FIG. 16B). Gene expression within peritoneal cells was measured by RT-PCR (FIG. 16C). Expression was normalized to Gapdh expression and data are represented as expression relative to adults. Data are pooled from two independent experiments (FIGS. 16B and 16C). Statistical differences were calculated by 2-way ANOVA (FIG. 16A) or 1-way ANOVA (FIG. 16B). […]
# Mice were fed a ketogenic diet for 1 week prior to an increase in BHB levels and then infection or peritonitis was induced by injection of monosodium urate. Body weights and blood BHB concentrations were measured daily in old mice during ketogenic diet feeding, prior to MSU injection (FIG. 19A). […] The peritoneal cells were isolated and pro-inflammatory cytokine Il1b, Nlrp3 and Tnf gene expression was measured by RT-PCR (FIG. 19B). […] Blood BHB levels were measured in adult mice 24 hr post-infection with Staphylococcus aureus (FIG. 19C). Total cells collected from brocho-aleveolar lavage BAL fluid from lungs 24 hr post-infection were quantified (FIG. 19D). […]
compound,measurement,setting,value
"CC(O)CC(=O)O (stereo not drawn) [BHB, β-hydroxybutyrate]",Gout-induced inflammation,[1],protect
same,IL-1β secretion,human monocytes,dose dependently inhibited
same,IL-18 secretion,human monocytes,dose dependently inhibited
same,TNFα production,human monocytes,without significantly affecting
same,ASC oligomerization in macrophages of FCAS mice,NLRP3^L351P,directly prevented
same,NLRC4 mediated caspase-1 cleavage,NLRC4,did not inhibit
same,IL1B production from human neutrophils,human neutrophils,inhibit
same,ASC oligomerization in response to NLRP3 ligand ATP,"ASC; BMDMs primed with LPS (4 h), ATP and BHB 1 h, DSS cross-linked ASC",prevented
same,ASC speck formation,"ASC; BMDMs, LPS+ATP, BHB (10 mM)",prevented
same,AIM2 inflammasome induced IL-1β activation,AIM2 inflammasome,did not inhibit
same,neutrophil hyperactivation in peritonitis,[2],prevented
